Where two headings read alike, the source gives them in different places.
Columns and labels:
CrGluCl-A = CrGluCl-A (Caligus rogercresseyi, UniProt A0A1W6LZ70); assay: Two-electrode voltage-clamp of Xenopus oocytes expressing CrGluCl-A; assay type: cell-based; conditions: CrGluCl-A alone
Experimental: (§1) Adult female Xenopus laevis frogs were anaesthetized by immersion in a1g/L solution tricaine (Ethyl 3-aminobenzoate methanesulfonate, Sigma) buffered to pH 7 with NaHCO3. Surgery was performed 30–40 min later, once the frog was completely anaesthetized judging by loss of reflexes. Ovarian lobes were removed through 1 cm abdominal incision and then kept at 16°C in Barth’s modified solution containing (in mM): 88 NaCl, 1 KCl, 0.4 CaCl2, 0.3 Ca (NO3)2, 0.8 MgSO4, 2.4 NaHCO3, 5 Hepes, 2.5 sodium pyruvate, 100 μg/ml gentamicin sulfate, 100 U/ml penicillin, 100 μg/ml streptomycin, 250 μg/ml amphotericin B, 0.22μm filtered and adjusted to pH 7.5 with Tris-Base. Osmolarity was brought to 220 mOsm with saccharose. The oocytes were manually defolliculated on the same day of extraction and the following day 20 ng cRNA in nuclease-free water was injected into stage V-VI oocytes using a FemtoJet microinjector (Eppendorf). Finally, the injected oocytes were stored in 96 well plates containing Barth’s modified solution and kept at 16°C until experiment day.
Current measurements at controlled membrane potentials (voltage-clamp experiments) were performed using two intracellular microelectrodes in defolliculated Xenopus oocytes previously microinjected with 20 ng of cRNA. Voltage-clamp recording was performed at room temperature using a TURBO TEC-10CX amplifier (npi electronic GmbH, Tamm, Germany) and PClamp 10.6 software (Axon Instruments, USA), 1 to 4 days after oocyte injection. The oocytes were recorded in a chamber (Model RC-1Z, Warner Instrumenst, USA) under continuous superfusion. […] Reference was an Ag-AgCl electrode connected to the bath via a 3 M KCl in 3% agar bridge. Currents were recorded continuously during the experiments without interruptions for solution changes. […] The signal filtered at 1 kHz was acquired with a Digidata 1440A Analog-to-Digital Converter and analyzed with Axon pClamp 10.6 software. […]

CrGluCl-E = assay: Two-electrode voltage-clamp of Xenopus oocytes expressing CrGluCl-E; assay type: cell-based, Caligus rogercresseyi; conditions: CrGluCl-E alone; glutamate up to 1mM, 1μM ivermectin
Experimental: as §1, with “The oocytes were manually defolliculated on the same day of extraction and the following day 20 ng cRNA in nuclease-free water was injected into stage V-VI oocytes using a FemtoJet microinjector (Eppendorf). Finally, the injected oocytes were stored in 96 well plates containing Barth’s modified solution and kept at 16°C until experiment day.” left out
(§2) Current measurements at controlled membrane potentials (voltage-clamp experiments) were performed using two intracellular microelectrodes in defolliculated Xenopus oocytes previously microinjected with 20 ng of cRNA. […] The oocytes were recorded in a chamber (Model RC-1Z, Warner Instrumenst, USA) under continuous superfusion. […] Currents were recorded continuously during the experiments without interruptions for solution changes. […] The signal filtered at 1 kHz was acquired with a Digidata 1440A Analog-to-Digital Converter and analyzed with Axon pClamp 10.6 software. […]

[1] = system: CrGluCl-B-Q279E-Y361F-Q327T triple mutant; assay: Voltage-clamp of oocytes expressing CrGluCl-B triple mutant; assay type: cell-based, Caligus rogercresseyi
From the text: To identify putative GluCl subunits, we queried the NCBI Transcriptome Shotgun Assembly Sequence (TSA) Database for “glutamate-gated chloride channel Caligus”. The obtained sequences were translated and BLASTed (tBLASTn) against the C. rogercresseyi genome (WGS, BioProject ID 280098, NCBI) and against transcripts of L. salmonis database (https://licebase.org/). Primers for each of the putative new subunit found were designed to span the full length of the open reading frame (ORF) for each of them (B-E) (S1 Table, and arrows in Fig 1). Complete cDNAs were generated by RT-PCR from adult C. rogercresseyi samples from which putative full-length peptide sequences of CrGluCl-B, CrGluCl-C, CrGluCl-D and CrGluCl-E were obtained. Each PCR product was cloned in pGEM-T easy vector and sequenced. To express the clones in Xenopus laevis oocytes, ORF of CrGluCl-B, -C, -D and -E were cloned in pGH19 vector from pGEM-Teasy/CrGluCl using the following restriction enzymes: BamHI and XbaI (-B) and EcoRI (-D and -E). CrGluCl-C was cloned first in pCR3.1 vector with NotI and then into pGH19 with SpeI/XbaI. The CrGluCl/pGH19 plasmid were linearized with NheI (-A and -B) or XhoI (-C, -D, -E) and used as template for the synthesis of capped cRNA (complementary RNA) using the mMessage Machine T7 kit. Mutations were made by site-directed mutagenesis using the QuickChange method and confirmed by sequencing. […]
as §2

HcGluClα = system: HcGluClα; parameters: method as in PMID 7935817, PMID 8702744, PMID 25994631; conditions: read-out: EC50 glutamate; cited from earlier work
CrGluCl-B Q279E mutant = assay: Voltage-clamp of oocytes expressing CrGluCl-B Q279E mutant; assay type: cell-based, Caligus rogercresseyi; conditions: 1 μM ivermectin, one-sample t-test
From the text: (§3) To identify putative GluCl subunits, we queried the NCBI Transcriptome Shotgun Assembly Sequence (TSA) Database for “glutamate-gated chloride channel Caligus”. The obtained sequences were translated and BLASTed (tBLASTn) against the C. rogercresseyi genome (WGS, BioProject ID 280098, NCBI) and against transcripts of L. salmonis database (https://licebase.org/). Primers for each of the putative new subunit found were designed to span the full length of the open reading frame (ORF) for each of them (B-E) (S1 Table, and arrows in Fig 1). Complete cDNAs were generated by RT-PCR from adult C. rogercresseyi samples from which putative full-length peptide sequences of CrGluCl-B, CrGluCl-C, CrGluCl-D and CrGluCl-E were obtained. Each PCR product was cloned in pGEM-T easy vector and sequenced. […]
as §2

CrGluCl-B Y361F mutant = assay: Voltage-clamp of oocytes expressing CrGluCl-B Y361F mutant; assay type: cell-based, Caligus rogercresseyi; conditions: 1 μM ivermectin, one-sample t-test
From the text: as §3, §2

CrGluCl-B Q327T mutant = assay: Voltage-clamp of oocytes expressing CrGluCl-B Q327T mutant; assay type: cell-based, Caligus rogercresseyi; conditions: 1 μM ivermectin, ANOVA P<0.05
From the text: as §3, §2

CrGluCl-A, sequence (A0A1W6LZ70 entry or part of it): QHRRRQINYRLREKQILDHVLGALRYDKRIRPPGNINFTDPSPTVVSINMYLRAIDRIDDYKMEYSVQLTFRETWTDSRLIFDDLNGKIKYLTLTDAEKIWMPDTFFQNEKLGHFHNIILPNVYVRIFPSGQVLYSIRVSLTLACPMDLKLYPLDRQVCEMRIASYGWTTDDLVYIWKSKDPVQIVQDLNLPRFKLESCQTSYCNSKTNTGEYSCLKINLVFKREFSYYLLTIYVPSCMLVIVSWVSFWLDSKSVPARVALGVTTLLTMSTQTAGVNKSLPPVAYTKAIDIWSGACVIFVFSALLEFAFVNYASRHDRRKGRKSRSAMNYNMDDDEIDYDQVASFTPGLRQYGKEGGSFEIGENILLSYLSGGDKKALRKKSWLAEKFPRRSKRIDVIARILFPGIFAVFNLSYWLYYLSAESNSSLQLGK

In the case of `N[C@@H](CCC(=O)O)C(=O)O` [glutamate, L-glutamate], the “nH (glutamate)” value (CrGluCl-A; 60 mV) is reported as 1.65 ± 0.63, the EC50 (CrGluCl-A; EC50 Glutamate, currents at 60 mV, Hill fit) is reported as 7.2 ± 2.7 µM and the “response (current activation)” value (CrGluCl-E) is reported as “failed to show any response”. For the same molecule, the EC50 ([1]; read-out: EC50 glutamate) was 103 ± 133 µM and the EC50 (HcGluClα) was 28 µM.
For ivermectin, the “response (current activation)” value (CrGluCl-E) was “failed to show any response”, the “nH (ivermectin)” value [1] was 1.6 ± 0.22 and the EC50 ([1]; read-out: EC50 ivermectin) was 0.094 ± 0.054 µM. For the same molecule, the “effect of ivermectin on current” value (CrGluCl-B Q279E mutant) was “small but significant effects”, the “effect of ivermectin on current” value (CrGluCl-B Y361F mutant) was “small but significant effects” and the “effect of ivermectin on current compared with WT” value (CrGluCl-B Q327T mutant) was “significantly greater”.

Reference: paper PMC10038264, “A new family of glutamate-gated chloride channels in parasitic sea louse Caligus rogercresseyi: A subunit refractory to activation by ivermectin is dominant in heteromeric assemblies” (PLOS Pathogens, 2023)
